# Assay results as given in paper PMC11284088, “Synthesis and biochemical characterization of naphthoquinone derivatives targeting bacterial histidine kinases” (The Journal of Antibiotics, 2024).
# “Also recorded” adds a separate entry of the source. Where two headings read alike, the source gives them in different places.
# Key:
# B. subtilis 168 strain = test: MIC, standard microtiter broth dilution; assay type: cell-based, Bacillus subtilis; parameters: key to MIC: MIC + antibacterial activity against Bacillus subtilis 168; conditions: for antibacterial (antimicrobial) activity against B. subtilis: in words
# Method: The minimum inhibitory concentrations (MICs) were determined using the standard microtiter broth dilution method, as recommended by the guidelines of the Clinical Laboratory Standards Institute.
# WalK = target: T1, WalK (Bacillus subtilis, UniProt Q45614); test: Inhibition of WalK autophosphorylation; assay type: biochemical; parameters: key to WalK: WalK + inhibitory effect against WalK; conditions: for IC50: against WalK from B. subtilis, autophosphorylation, N.I. = no inhibition; for inhibitory activity against WalK: in words; for WalK: summary class
# T1 construct: His6 (N); made in house; host or cells: E. coli BL21(DE3)
# Method: Autophosphorylation of WalK was conducted at 0.5 or 1 µM in a reaction mixture comprising 50 mM Tris-HCl (pH 8.5), 100 mM KCl, 5 mM MgCl2, 100 mM NH4Cl, 5% DMSO, and 40 µM ATP. The total reaction volume was 40 µl, and the incubation lasted for 30 min at 25 °C. To terminate the reaction, 40 µl of 2 × SDS-PAGE sample buffer was added, followed by a 10-min incubation at 37 °C. Subsequently, SDS-PAGE (10% acrylamide) was performed, and the samples were subjected to Western blotting using a PVDF membrane (Bio-Rad 1620177). The primary antibody used was anti-N3-phosphohistidine antibody (clone SC56-2) (EDM Millipore Corp), and the secondary antibody was goat anti-rabbit IgG-HRP (Abcam). A 2% bovine serum albumin (Sigma-Aldrich) solution served as the blocking reagent. Signals originating from phosphorylated HKs were detected using the HRP substrate (Immobilon Western Chemiluminescent HRP substrate, Millipore) and the Multi Imager II Multi Box (Bio Tools). Signal intensities were quantified with Image Analysis Software CS Analyzer 4 (ATTO). IC50 values (50% inhibitory concentrations) were determined using Prism 7 software (GraphPad).
# In the assessment of naphthoquinone derivatives, the initial screening for inhibitory activity against WalK autophosphorylation was conducted at 50 or 100 µg ml^−1. Compounds displaying inhibitory activity were further examined to ascertain their IC50 values against WalK. For the chosen compounds, inhibition against EvgS, EnvZ, PhoQ, and CpxA HKs was also assessed. These reactions involved the use of 1 µM HK, 40 µM ATP, and a 30 min incubation at 25 °C.
# [1] = target: T2, WalK (207-611, B. subtilis) (Bacillus subtilis, UniProt Q45614); test: Affinity selection/mass spectrometry, competition with waldiomycin; assay type: binding; parameters: key to AS/MS: AS/MS + competitive inhibition of the binding of waldiomycin to WalK; − increased binding of waldiomycin to WalK
# T2 construct: His6 (N); made in house; host or cells: E. coli BL21(DE3)
# Method: The affinity selection/mass spectrometry (AS/MS) is a method which can detect the binding of small compounds to proteins. This experiment was carried out following a previously established protocol (Fig. 5), with the exception of using Millipore 96-well filter plates (MSBVN1210) instead of MAHAN4510. In the experiment, 1 µM of WalK (207-611, B. subtilis, refer to Table S2) was combined and incubated with 5 µM of waldiomycin and competitor compounds in a reaction buffer. The buffer composition was as follows: 25 mM Tris-HCl (pH 8.0), 50 mM KCl, 50 mM NH4Cl, 5 mM MgCl2, 1 mM DTT, and 0.1% CHAPS. Following the incubation, the mixture was subjected to size-exclusion chromatography via centrifugation to eliminate free compounds. The protein that was eluted was then denatured by adding an equal volume of methanol/0.1% formic acid. The compounds that were subsequently released from the protein were detected using an LC/MS system. The concentrations of waldiomycin were calculated from the value of peak areas using calibration curve that covered the range of 1 nM to 1 µM (R^2 = 0.9991). The concentration of waldiomycin in the eluate of WalK and waldiomycin without competitor was 10.1 nM, and percentages to this value were calculated for other samples.
# iseA (formerly yoeB) = test: RT-qPCR of iseA expression in B. subtilis cells; assay type: cell-based, B. subtilis 168; parameters: key to RT-qPCR: RT-qPCR + iseA gene expression was induced in B. subtilis 168; − no effect; conditions: for RT-qPCR: summary class, iseA gene expression in B. subtilis 168
# Method: In brief, the cells were aerated and grown to an optical density at 660 nm of 0.3–0.4 at 37 °C. After the addition of DMSO or naphthoquinone derivatives, the cultures were further incubated for 5 min, cooled on ice for 1 min, and then harvested by centrifugation (2300 × g, 10 min, 4 °C). The cells were resuspended in 800 µl of RNA Lysis Buffer (SV Total RNA Isolation System, Z3100, Promega), transferred to a screw-capped tube containing 400 mg of glass beads (GB-01, TOMY), and disrupted using MicroSmash (MS-100, TOMY Medico) at 3000 rpm, 60 s ON/OFF for 6 cycles. RNA was then purified from 175 µl of the supernatant using the SV Total RNA Isolation System, followed by DNase I treatment (Turbo DNA-free^TM Kit, AM1907, Invitrogen) to remove any residual genomic DNA contamination. […] The expression levels of the genes were normalized using the 16S rRNA gene as an internal standard. Each assay was performed at least three times. Statistical analyses were conducted using Tukey’s multiple comparison test (GraphPad Prism 7).
# [2] = B. subtilis 168 strain grown in LB broth at 37 °C for 18 h
# [3] = Bacillus subtilis, B. subtilis 168 strain grown in LB broth at 37 °C for 18 h, read-out: MIC
# T2 sequence (Q45614 207-611): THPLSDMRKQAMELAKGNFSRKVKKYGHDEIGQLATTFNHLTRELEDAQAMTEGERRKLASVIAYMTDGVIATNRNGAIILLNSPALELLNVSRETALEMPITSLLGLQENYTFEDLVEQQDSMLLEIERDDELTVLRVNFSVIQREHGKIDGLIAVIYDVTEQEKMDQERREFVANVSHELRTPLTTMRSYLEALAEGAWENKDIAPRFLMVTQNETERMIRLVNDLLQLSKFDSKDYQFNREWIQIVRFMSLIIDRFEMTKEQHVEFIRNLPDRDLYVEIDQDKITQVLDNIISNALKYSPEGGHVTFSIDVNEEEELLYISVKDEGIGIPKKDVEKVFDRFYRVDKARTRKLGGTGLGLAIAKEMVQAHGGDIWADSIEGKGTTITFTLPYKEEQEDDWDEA
# T1 sequence (Q45614 207-611): as above
SMILES,MIC (B. subtilis 168 strain; [2]) [µg/mL],antibacterial (antimicrobial) activity against B. subtilis (B. subtilis 168 strain),IC50 (WalK; read-out: IC50) [µM],IC50 (WalK),inhibitory activity against WalK (WalK),further results
"O=C1C(Cl)=C(Nc2cccc(O)c2)C(=O)c2c(O)ccc(O)c21 [2g, 2-chloro-5,8-dihydroxy-3-((3-hydroxyphenyl)amino)naphthalene-1,4-dione]",1,equal to waldiomycin or even stronger,31.7,,,
"COc1ccc(NC2=C(Cl)C(=O)c3c(O)ccc(O)c3C2=O)cc1 [2k, 2-chloro-5,8-dihydroxy-3-((4-methoxyphenyl)amino)naphthalene-1,4-dione]",>128,no or a very weak antimicrobial activity,,N.I.,did not show any inhibitory activity; also recorded: noninhibitory; also recorded: did not inhibit WalK,
"O=C(O)c1cc(NC2=C(Cl)C(=O)c3c(O)ccc(O)c3C2=O)ccc1O [2m, 5-((3-chloro-5,8-dihydroxy-1,4-dioxo-1,4-dihydronaphthalen-2-yl)amino)-2-hydroxybenzoic acid]",64,weaker,45,,weaker,
"O=C1C(Cl)=C(NCCc2ccc(O)c(O)c2)C(=O)c2c(O)ccc(O)c21 [2f, 2-chloro-3-((3,4-dihydroxyphenethyl)amino)-5,8-dihydroxynaphthalene-1,4-dione]",8,equal to waldiomycin or even stronger,,N.I.,did not show any inhibitory activity; also recorded: inactive,
"O=C1C(Cl)=C(N2CCNCC2)C(=O)c2ccccc21 [2c, 2-chloro-3-(piperazin-1-yl)naphthalene-1,4-dione]",8,equal to waldiomycin or even stronger,,N.I.,did not show any inhibitory activity; also recorded: inactive,
"O=C1C(N2CCNCC2)=C(Cl)C(=O)c2c1cccc2[N+](=O)[O-] [2d, 3-chloro-5-nitro-2-(piperazin-1-yl)naphthalene-1,4-dione]",8,equal to waldiomycin or even stronger,305,,,
"O=C1C(Cl)=C(N2CCNCC2)C(=O)c2c(O)ccc(O)c21 [2a, 2-chloro-5,8-dihydroxy-3-(piperazin-1-yl)naphthalene-1,4-dione]",,,32.4,,weaker,"effect on the signal of waldiomycin ([1]; compound 30 and 100 µM, in words): reduced the signal of waldiomycin in a dose-dependent manner; signal of waldiomycin compared to only waldiomycin with WalK ([1]; compound at 100 µM, waldiomycin 5 µM, WalK 1 µM): about 10%; binding to WalK competitive with that of waldiomycin ([1]; in words): competitive; also recorded: competitively interacted with waldiomycin; RT-qPCR (iseA (formerly yoeB)): +; WalK (WalK): +"
"O=C(O)c1cc(NC2=C(Cl)C(=O)c3c(cccc3[N+](=O)[O-])C2=O)ccc1O [2n, 5-((3-chloro-5-nitro-1,4-dioxo-1,4-dihydronaphthalen-2-yl)amino)-2-hydroxybenzoic acid]",128,no or a very weak antimicrobial activity,,N.I.,did not show any inhibitory activity; also recorded: did not inhibit WalK,
"O=C1C(Nc2ccc(Cl)c(O)c2)=CC(=O)c2c(O)cccc21 [2j, 2-((4-chloro-3-hydroxyphenyl)amino)-5-hydroxynaphthalene-1,4-dione]",,equal to waldiomycin or even stronger,75.1,,,MIC (B. subtilis 168 strain; [3]): 4 µg/mL
"O=C1C(Cl)=C(NCCO)C(=O)c2c(O)ccc(O)c21 [2e, 2-chloro-5,8-dihydroxy-3-((2-hydroxyethyl)amino)naphthalene-1,4-dione]",2,equal to waldiomycin or even stronger,,N.I.,did not show any inhibitory activity; also recorded: inactive,
"O=C1c2onc(-c3ccccc3)c2C(=O)c2c(O)ccc(O)c21 [3a, 5,8-dihydroxy-3-phenylnaphtho[2,3-d]isoxazole-4,9-dione]",0.5,equal to waldiomycin or even stronger,51,,,
"O=C1c2onc(-c3ccccc3)c2C(=O)c2cccc(O)c21 [3c, 8-hydroxy-3-phenylnaphtho[2,3-d]isoxazole-4,9-dione]",,equal to waldiomycin or even stronger,,N.I.,did not show any inhibitory activity,MIC (B. subtilis 168 strain; [3]): 0.5 µg/mL
"O=C1C(N2CCNCC2)=CC(=O)c2c(O)cccc21 [2b, 5-hydroxy-2-(piperazin-1-yl)naphthalene-1,4-dione]",8,equal to waldiomycin or even stronger,48.4,,,"MIC (B. subtilis 168 strain; summary class, Bacillus subtilis 168): +; increase of MS signal of the collected waldiomycin compared to only waldiomycin ([1]; compound 30 or 100 µM, waldiomycin 5 µM, WalK 1 µM): about twofold; binding to WalK competitive with that of waldiomycin ([1]; in words): not competitive; also recorded: enhanced the binding of waldiomycin to WalK; AS/MS ([1]; summary class, effect on binding of waldiomycin to WalK): −; expression of iseA (iseA (formerly yoeB); exponentially growing cells, subMIC or MIC levels, 5 min, relative to DMSO control): did not change; RT-qPCR (iseA (formerly yoeB)): −; WalK (WalK): +"
"O=C1C(Cl)=C(Nc2ccc(Cl)c(O)c2)C(=O)c2c(O)ccc(O)c21 [2i, 2-chloro-3-((4-chloro-3-hydroxyphenyl)amino)-5,8-dihydroxynaphthalene-1,4-dione]",,equal to waldiomycin or even stronger,,,did not show any inhibitory activity; also recorded: inactive,"MIC (B. subtilis 168 strain; B. subtilis 168 strain grown in LB broth at 37 °C for 18 h, listed as C00017): 4 µg/mL; IC50 (WalK; listed as C00017): N.I."
